Like-named read-outs stand apart in the source and are kept apart here.
Tests used:
[1] = molecular target: T1, panel of 255 wild-type kinases (Homo sapiens, UniProt Q9BZL6); assay: Kinase panel profiling at 1 µmol/L (MSA or IMAP), percentage inhibition; assay type: biochemical; conditions: kinase PKD2; 1 µmol/L single concentration; read-out: %-inhibition at 1 µmol/L, PKD2
T1 sequence (Q9BZL6 1-878): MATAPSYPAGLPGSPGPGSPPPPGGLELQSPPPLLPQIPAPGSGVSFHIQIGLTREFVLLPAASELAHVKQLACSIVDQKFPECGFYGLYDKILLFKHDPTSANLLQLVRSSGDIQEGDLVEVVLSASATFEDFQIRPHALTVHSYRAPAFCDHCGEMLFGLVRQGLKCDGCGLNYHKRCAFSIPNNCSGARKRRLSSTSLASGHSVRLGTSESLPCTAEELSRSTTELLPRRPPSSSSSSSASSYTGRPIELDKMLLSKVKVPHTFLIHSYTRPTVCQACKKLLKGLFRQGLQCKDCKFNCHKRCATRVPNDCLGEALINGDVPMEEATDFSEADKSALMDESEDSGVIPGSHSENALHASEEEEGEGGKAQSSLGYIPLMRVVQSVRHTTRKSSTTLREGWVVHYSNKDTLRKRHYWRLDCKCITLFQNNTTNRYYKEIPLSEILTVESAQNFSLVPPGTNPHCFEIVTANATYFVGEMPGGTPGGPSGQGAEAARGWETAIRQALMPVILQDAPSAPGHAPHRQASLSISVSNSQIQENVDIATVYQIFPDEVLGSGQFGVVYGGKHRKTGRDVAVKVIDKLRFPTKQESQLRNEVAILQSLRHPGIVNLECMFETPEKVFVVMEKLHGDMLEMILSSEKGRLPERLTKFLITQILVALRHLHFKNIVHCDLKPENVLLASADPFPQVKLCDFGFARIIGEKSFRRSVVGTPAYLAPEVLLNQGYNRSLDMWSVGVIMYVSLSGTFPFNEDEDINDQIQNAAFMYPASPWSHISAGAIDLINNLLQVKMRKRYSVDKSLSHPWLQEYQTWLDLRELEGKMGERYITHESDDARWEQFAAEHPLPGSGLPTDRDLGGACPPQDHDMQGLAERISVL

[2] = system: 134 cancer cell lines; assay: Cell viability assay (ATPlite, 72 hours), IC50 on cancer cell line panel

For `Cn1cnc2c(F)c(Nc3ccc(Br)cc3F)c(C(=O)NOCCO)cc21` [binimetinib], the inhibition at 1 µM [1] was -7%, the IC50 ([2]; HEC-6, read-out: IC50 in cell proliferation assay, HEC-6 cell line (EGFR p.A289V)) was > 31600 nM and the IC50 ([2]; Homo sapiens, 769-P, read-out: IC50 in cell proliferation assay, cell line 769-P) was 229 nM. The IC50 ([2]; Homo sapiens, 786-0, read-out: IC50 in cell proliferation assay, cell line 786-O) was > 31600 nM, the IC50 ([2]; Homo sapiens, A 172, read-out: IC50 in cell proliferation assay, cell line A-172) was 20000 nM and the IC50 ([2]; Homo sapiens, A204, read-out: IC50 in cell proliferation assay, cell line A-204) was > 31600 nM. For the same molecule, the IC50 ([2]; Homo sapiens, A498, read-out: IC50 in cell proliferation assay, cell line A-498) was 53 nM, the IC50 ([2]; Homo sapiens, A549, read-out: IC50 in cell proliferation assay, cell line A-549) was 92 nM and the IC50 ([2]; Homo sapiens, A704, read-out: IC50 in cell proliferation assay, cell line A-704) was > 31600 nM. The IC50 ([2]; Homo sapiens, A-375, read-out: IC50 in cell proliferation assay, cell line A-375 (BRAF p.V600E)) was 86 nM, the IC50 ([2]; Homo sapiens, A-427, read-out: IC50 in cell proliferation assay, cell line A-427) was 625 nM and the IC50 ([2]; Homo sapiens, ACHN, read-out: IC50 in cell proliferation assay, cell line ACHN) was 32 nM. The IC50 ([2]; Homo sapiens, AN3-CA, read-out: IC50 in cell proliferation assay, cell line AN3-CA (FGFR2 p.N549K)) was 12800 nM, the IC50 ([2]; Homo sapiens, ASPC1, read-out: IC50 in cell proliferation assay, cell line AsPC-1) was 116 nM and the IC50 ([2]; Homo sapiens, AU565, read-out: IC50 in cell proliferation assay, cell line AU565 (ERBB2 amplification)) was > 31600 nM. The IC50 ([2]; Homo sapiens, BT-20, read-out: IC50 in cell proliferation assay, cell line BT-20) was > 31600 nM, the IC50 ([2]; Homo sapiens, BT-474, read-out: IC50 in cell proliferation assay, cell line BT-474 (ERBB2 amplification)) was > 31600 nM and the IC50 ([2]; Homo sapiens, BT-549, read-out: IC50 in cell proliferation assay, cell line BT-549) was 8680 nM. It also gave an IC50 ([2]; Homo sapiens, BXPC-3, read-out: IC50 in cell proliferation assay, cell line BxPC-3) of 24 nM, an IC50 ([2]; Homo sapiens, C-33-A, read-out: IC50 in cell proliferation assay, cell line C-33 A) of 72 nM and an IC50 ([2]; Homo sapiens, CAL-27, read-out: IC50 in cell proliferation assay, cell line CAL-27) of 117 nM. The IC50 ([2]; Homo sapiens, CCF-STTG1, read-out: IC50 in cell proliferation assay, cell line CCF-STTG1) was > 31600 nM, the IC50 ([2]; Homo sapiens, CCRF-CEM, read-out: IC50 in cell proliferation assay, cell line CCRF-CEM) was > 31600 nM and the IC50 ([2]; Homo sapiens, COLO 205, read-out: IC50 in cell proliferation assay, cell line COLO 205 (BRAF p.V600E)) was 31 nM. The IC50 ([2]; Homo sapiens, COLO-829, read-out: IC50 in cell proliferation assay, cell line COLO 829 (BRAF p.V600E)) was 125 nM, the IC50 ([2]; Homo sapiens, DLD-1, read-out: IC50 in cell proliferation assay, cell line DLD-1) was 522 nM and the IC50 ([2]; Homo sapiens, DU-4475, read-out: IC50 in cell proliferation assay, cell line DU4475 (BRAF p.V600E)) was 38 nM. It also gave an IC50 ([2]; Homo sapiens, Daoy, read-out: IC50 in cell proliferation assay, cell line Daoy) of 3980 nM, an IC50 ([2]; Homo sapiens, DoTc2-4510, read-out: IC50 in cell proliferation assay, cell line DoTc2 4510) of 113 nM and an IC50 ([2]; Homo sapiens, EOL1, read-out: IC50 in cell proliferation assay, cell line EoL-1 (FIP1L1-PDGFRA)) of 82 nM. It also gave an IC50 ([2]; Homo sapiens, FaDu, read-out: IC50 in cell proliferation assay, cell line FaDu) of 47 nM, an IC50 ([2]; Homo sapiens, G-361, read-out: IC50 in cell proliferation assay, cell line G-361 (BRAF p.V600E)) of 144 nM and an IC50 ([2]; Homo sapiens, HCC827, read-out: IC50 in cell proliferation assay, cell line HCC827 (EGFR exon19del)) of 268 nM. The IC50 ([2]; Homo sapiens, HCC4006, read-out: IC50 in cell proliferation assay, cell line HCC4006 (EGFR exon19del)) was 26600 nM, the IC50 ([2]; Homo sapiens, HCT-15, read-out: IC50 in cell proliferation assay, cell line HCT 15) was 1070 nM and the IC50 ([2]; Homo sapiens, HCT-116, read-out: IC50 in cell proliferation assay, cell line HCT 116) was 525 nM. The IC50 ([2]; Homo sapiens, HEC-1, read-out: IC50 in cell proliferation assay, HEC-1 cell line) was > 31600 nM, the IC50 ([2]; Homo sapiens, HEC-1B, read-out: IC50 in cell proliferation assay, HEC-1-B cell line (EGFR p.A864V)) was 12 nM and the IC50 ([2]; Homo sapiens, HL-60, read-out: IC50 in cell proliferation assay, HL-60 cell line) was 5 nM. The IC50 ([2]; Homo sapiens, HT, read-out: IC50 in cell proliferation assay, HT cell line) was > 31600 nM, the IC50 ([2]; Homo sapiens, HT-1080, read-out: IC50 in cell proliferation assay, HT-1080 cell line) was 27 nM and the IC50 ([2]; Homo sapiens, Hs746T, read-out: IC50 in cell proliferation assay, Hs 746.T cell line (MET exon14skip + amplification)) was 12500 nM. The IC50 ([2]; Homo sapiens, Hs-578T, read-out: IC50 in cell proliferation assay, Hs 578T cell line) was 143 nM, the IC50 ([2]; Homo sapiens, HuTu80, read-out: IC50 in cell proliferation assay, HuTu 80 cell line) was 3320 nM and the IC50 ([2]; Homo sapiens, J82, read-out: IC50 in cell proliferation assay, J82 cell line) was 200 nM. For the same molecule, the IC50 ([2]; Homo sapiens, Jurkat E6.1, read-out: IC50 in cell proliferation assay, Jurkat E6.1 cell line) was > 31600 nM, the IC50 ([2]; Homo sapiens, K562, read-out: IC50 in cell proliferation assay, K-562 cell line) was 383 nM and the IC50 ([2]; Homo sapiens, KATO III, read-out: IC50 in cell proliferation assay, KATO III cell line (FGFR2 amplification)) was 5400 nM. For the same molecule, the IC50 ([2]; Homo sapiens, KG-1, read-out: IC50 in cell proliferation assay, KG-1 cell line (FGFR1OP2-FGFR1)) was 404 nM, the IC50 ([2]; Homo sapiens, KLE, read-out: IC50 in cell proliferation assay, KLE cell line) was > 31600 nM and the IC50 ([2]; Homo sapiens, KMS-11, read-out: IC50 in cell proliferation assay, KMS-11 cell line (FGFR3 p.Y373C)) was > 31600 nM. It also gave an IC50 ([2]; Homo sapiens, KU812, read-out: IC50 in cell proliferation assay, Ku812 cell line) of 30 nM, an IC50 ([2]; Homo sapiens, Kasumi 1, read-out: IC50 in cell proliferation assay, Kasumi-1 cell line (KIT p.N822K)) of 192 nM and an IC50 ([2]; Homo sapiens, LC-2-ad, read-out: IC50 in cell proliferation assay, LC-2/ad cell line (CCDC6-RET)) of 84 nM. For the same molecule, the IC50 ([2]; Homo sapiens, LNCaP-Clone-FGC, read-out: IC50 in cell proliferation assay, LNCaP clone FGC cell line) was > 31600 nM, the IC50 ([2]; Homo sapiens, LS174T, read-out: IC50 in cell proliferation assay, LS174T cell line) was 70 nM and the IC50 ([2]; Homo sapiens, LS-411N, read-out: IC50 in cell proliferation assay, LS411N cell line (BRAF p.V600E)) was 61 nM. The IC50 ([2]; Homo sapiens, LoVo, read-out: IC50 in cell proliferation assay, LoVo cell line) was 23 nM, the IC50 ([2]; Homo sapiens, MCF7, read-out: IC50 in cell proliferation assay, MCF-7 cell line) was > 31600 nM and the IC50 ([2]; Homo sapiens, MDA-MB-231, read-out: IC50 in cell proliferation assay, MDA-MB-231 cell line) was 1010 nM. For the same molecule, the IC50 ([2]; Homo sapiens, MDA-MB-453, read-out: IC50 in cell proliferation assay, MDA-MB-453 cell line) was > 31600 nM, the IC50 ([2]; Homo sapiens, MDA-MB-468, read-out: IC50 in cell proliferation assay, MDA-MB-468 cell line) was 64 nM and the IC50 ([2]; Homo sapiens, MG-63, read-out: IC50 in cell proliferation assay, MG-63 cell line) was 2220 nM. It also gave an IC50 ([2]; Homo sapiens, MIA PaCa-2, read-out: IC50 in cell proliferation assay, MIA PaCa-2 cell line) of 140 nM, an IC50 ([2]; Homo sapiens, MKN-45, read-out: IC50 in cell proliferation assay, MKN45 cell line (MET amplification)) of 1150 nM and an IC50 ([2]; Homo sapiens, MOLM-13, read-out: IC50 in cell proliferation assay, MOLM-13 cell line (FLT3 ITD)) of 1030 nM. The IC50 ([2]; Homo sapiens, MOLT-4, read-out: IC50 in cell proliferation assay, MOLT-4 cell line) was > 31600 nM.

Source: paper PMC9516332 (Frontiers in Oncology, 2022)
